Data taken from publication PMC5908784, “Extracellular loops 2 and 3 of the calcitonin receptor selectively modify agonist binding and efficacy” (Biochemical Pharmacology, 2018).
Residue numbers refer to the chain shown, from its start. Where a SMILES comes first, the peptide text is derived from it. Bridges are numbered along the chain shown (N, C = ends).

How the values were obtained:
Experiment in all cases: cAMP accumulation
Assay type in all cases: cell-based
hCTR F359A = biological target: T1, hCTR F359A (Homo sapiens, UniProt P30988, F359A); details: mean ± S.E.M.; for Emax: cAMP maximal response, SEM; for EC50: cAMP, CV1-FlpIn cells, 30 min, IBMX
T1 construct: expressed in transfected cells
T1 sequence (P30988 25-474 F359A): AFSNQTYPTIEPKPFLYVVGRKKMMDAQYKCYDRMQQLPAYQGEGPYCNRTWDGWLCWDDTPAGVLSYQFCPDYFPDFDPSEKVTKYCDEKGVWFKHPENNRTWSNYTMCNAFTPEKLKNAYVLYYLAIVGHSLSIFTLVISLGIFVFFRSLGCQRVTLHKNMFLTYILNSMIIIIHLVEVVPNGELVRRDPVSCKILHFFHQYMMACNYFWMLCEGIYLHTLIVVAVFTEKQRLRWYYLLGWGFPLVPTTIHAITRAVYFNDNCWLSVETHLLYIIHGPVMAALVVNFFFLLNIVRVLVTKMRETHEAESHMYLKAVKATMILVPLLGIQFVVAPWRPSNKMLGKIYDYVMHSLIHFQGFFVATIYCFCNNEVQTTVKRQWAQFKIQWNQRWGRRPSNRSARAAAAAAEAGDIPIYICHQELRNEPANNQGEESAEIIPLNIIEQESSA
Method in brief: (§1)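 Plated cells were incubated overnight and then challenged with rising ligand concentrations for 30 min alongside IBMX. Medium was replaced by absolute ethanol, which was evaporated at room temperature before cAMP determination. Values are normalized to 100 μM forskolin.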

hCTR L368A = biological target: T2, hCTR L368A (Homo sapiens, UniProt P30988, L368A); details: mean ± S.E.M.; for Emax: cAMP maximal response, SEM; for EC50: cAMP, CV1-FlpIn cells, 30 min, IBMX
T2 construct: c-Myc (N); expressed in transfected cells
T2 sequence (P30988 25-474 L368A): T1 sequence (P30988 25-474 F359A) with A335F, L344A
Method in brief: as §1

hCTR T295A = biological target: T3, hCTR T295A (Homo sapiens, UniProt P30988, T295A); details: mean ± S.E.M.; for Emax: cAMP maximal response, SEM; for EC50: cAMP, CV1-FlpIn cells, 30 min, IBMX
T3 construct: c-Myc (N); expressed in transfected cells
T3 sequence (P30988 25-474 T295A): T1 sequence (P30988 25-474 F359A) with T271A, A335F
Method in brief: as §1

hCTR V358A = biological target: T4, hCTR V358A (Homo sapiens, UniProt P30988, V358A); details: mean ± S.E.M.; for Emax: cAMP maximal response, SEM; for EC50: cAMP, CV1-FlpIn cells, 30 min, IBMX
T4 construct: c-Myc (N); expressed in transfected cells
T4 sequence (P30988 25-474 V358A): T1 sequence (P30988 25-474 F359A) with V334A, A335F
Method in brief: as §1

hCTR C289A = biological target: T5, hCTR C289A (Homo sapiens, UniProt P30988, C289A); details: mean ± S.E.M.; for Emax: cAMP maximal response, SEM
T5 construct: c-Myc (N); expressed in transfected cells
T5 sequence (P30988 25-474 C289A): T1 sequence (P30988 25-474 F359A) with C265A, A335F
Method in brief: as §1

Row | EC50 (hCTR F359A) | EC50 (hCTR L368A) | EC50 (hCTR T295A) | EC50 (hCTR V358A) | EC50 (hCTR C289A; cAMP, CV1-FlpIn cells, 30 min, IBMX) | Compound | Emax (hCTR F359A) | Emax (hCTR L368A) | Emax (hCTR T295A) | Emax (hCTR V358A) | Emax (hCTR C289A)
1 | 18.6 nM | 11.5 nM | 107 nM | 20.9 nM | – | CC(C)C[C@H](NC(=O)CNC(=O)[C@H](C)NC(=O)[C@H](CC(C)C)NC(=O)[C@H](CCCNC(=N)N)NC(=O)[C@H](Cc1cnc[nH]1)NC(=O)[C@@H](NC(=O)[C@@H](NC(=O)[C@@H]1CSSC[C@H](NC(=O)[C@H](C)N)C(=O)N[C@@H](CC(=O)O)C(=O)N[C@@H]([C@@H](C)O)C(=O)N[C@@H](C)C(=O)N[C@@H]([C@@H](C)O)C(=O)N1)C(C)C)[C@@H](C)O)C(=O)N[C@@H](CC(C)C)C(=O)N[C@@H](CO)C(=O)N[C@@H](CCCNC(=N)N)C(=O)N[C@@H](CO)C(=O)NCC(=O)NCC(=O)N[C@H](C(=O)N[C@H](C(=O)N[C@@H](CCCCN)C(=O)N[C@@H](CC(N)=O)C(=O)N[C@@H](CC(N)=O)C(=O)N[C@@H](Cc1ccccc1)C(=O)N[C@H](C(=O)N1CCC[C@H]1C(=O)N[C@H](C(=O)N[C@@H](CC(N)=O)C(=O)N[C@H](C(=O)NCC(=O)N[C@@H](CO)C(=O)N[C@@H](CCCCN)C(=O)N[C@@H](C)C(=O)N[C@@H](Cc1ccccc1)C(N)=O)C(C)C)[C@@H](C)O)C(C)C)C(C)C)C(C)C [hαCGRP] | 53 ± 8% | 78 ± 12% | 79 ± 20% | 74 ± 9% | –
2 | 0.162 nM | 0.0316 nM | 0.282 nM | 0.0316 nM | 1.02 nM | CSCC[C@H](NC(=O)CNC(=O)[C@H](CO)NC(=O)[C@H](Cc1ccccc1)NC(=O)[C@H](CCCNC(=N)N)NC(=O)[C@H](Cc1c[nH]cn1)NC(=O)[C@H](Cc1ccccc1)NC(=O)[C@H](CC(N)=O)NC(=O)[C@H](CC(N)=O)NC(=O)[C@H](CC(C)C)NC(=O)[C@H](CC(N)=O)NC(=O)[C@H](CCCNC(=N)N)NC(=O)[C@H](Cc1c[nH]c2ccccc12)NC(=O)[C@H](Cc1ccc(O)cc1)NC(=O)[C@H](C)NC(=O)[C@H](CO)NC(=O)[C@H](CC(C)C)NC(=O)[C@@H](NC(=O)[C@@H]1CSSC[C@H](N)C(=O)N[C@@H](CO)C(=O)N[C@@H](CC(N)=O)C(=O)N[C@@H](CC(C)C)C(=O)N[C@@H](CO)C(=O)N[C@@H]([C@@H](C)O)C(=O)N1)C(C)C)C(=O)NCC(=O)N[C@@H](Cc1ccccc1)C(=O)NCC(=O)N1CCC[C@H]1C(=O)N[C@@H](CCC(=O)O)C(=O)N[C@H](C(=O)N1CCC[C@H]1C(N)=O)[C@@H](C)O [pCT] (H-CSNLSTCVLSAYWRNLNNFHRFSGMGFGPETP-NH2; disulfide 1-7) | 113 ± 8% | 96 ± 6% | 123 ± 8% | 140 ± 15% | 115 ± 7%
3 | – | – | – | – | – | CC(C)C[C@H](NC(=O)[C@H](CCCCN)NC(=O)CNC(=O)[C@H](CC(C)C)NC(=O)[C@@H](NC(=O)[C@@H]1CSSC[C@H](N)C(=O)N[C@@H](CO)C(=O)N[C@@H](CC(N)=O)C(=O)N[C@@H](CC(C)C)C(=O)N[C@@H](CO)C(=O)N[C@@H]([C@@H](C)O)C(=O)N1)C(C)C)C(=O)N[C@@H](CO)C(=O)N[C@@H](CCC(N)=O)C(=O)N[C@@H](CCC(=O)O)C(=O)N[C@@H](CC(C)C)C(=O)N[C@@H](Cc1c[nH]cn1)C(=O)N[C@@H](CCCCN)C(=O)N[C@@H](CC(C)C)C(=O)N[C@@H](CCC(N)=O)C(=O)N[C@H](C(=O)N[C@@H](Cc1ccc(O)cc1)C(=O)N1CCC[C@H]1C(=O)N[C@@H](CCCNC(=N)N)C(=O)N[C@H](C(=O)N[C@@H](CC(N)=O)C(=O)N[C@H](C(=O)NCC(=O)N[C@@H](CO)C(=O)NCC(=O)N[C@H](C(=O)N1CCC[C@H]1C(N)=O)[C@@H](C)O)[C@@H](C)O)[C@@H](C)O)[C@@H](C)O [sCT] | 84 ± 4% | 75 ± 7% | 138 ± 13% | 139 ± 9% | 140 ± 7%
4 | – | – | – | – | – | CC[C@H](C)[C@H](NC(=O)[C@H](C)NC(=O)[C@@H](NC(=O)[C@H](CCC(N)=O)NC(=O)[C@@H]1CCCN1C(=O)[C@H](Cc1ccccc1)NC(=O)[C@@H](NC(=O)[C@H](Cc1c[nH]cn1)NC(=O)[C@H](Cc1ccccc1)NC(=O)[C@H](CCCCN)NC(=O)[C@H](CC(N)=O)NC(=O)[C@H](Cc1ccccc1)NC(=O)[C@H](CC(=O)O)NC(=O)[C@H](CCC(N)=O)NC(=O)[C@@H](NC(=O)[C@H](Cc1ccc(O)cc1)NC(=O)[C@@H](NC(=O)CNC(=O)[C@H](CC(C)C)NC(=O)[C@H](CCSC)NC(=O)[C@@H]1CSSC[C@H](N)C(=O)NCC(=O)N[C@@H](CC(N)=O)C(=O)N[C@@H](CC(C)C)C(=O)N[C@@H](CO)C(=O)N[C@@H]([C@@H](C)O)C(=O)N1)[C@@H](C)O)[C@@H](C)O)[C@@H](C)O)[C@@H](C)O)C(=O)NCC(=O)N[C@H](C(=O)NCC(=O)N[C@@H](C)C(=O)N1CCC[C@H]1C(N)=O)C(C)C [hCT] | 130 ± 9% | 70 ± 4% | 127 ± 11% | 98 ± 4% | 148 ± 7%
5 | – | – | – | – | – | CC(C)C[C@H](NC(=O)[C@H](CC(N)=O)NC(=O)[C@H](CC(N)=O)NC(=O)[C@H](CO)NC(=O)[C@H](CO)NC(=O)[C@H](CCCNC(=N)N)NC(=O)[C@@H](NC(=O)[C@H](CC(C)C)NC(=O)[C@H](Cc1ccccc1)NC(=O)[C@H](CC(N)=O)NC(=O)[C@H](C)NC(=O)[C@H](CC(C)C)NC(=O)[C@H](CCCNC(=N)N)NC(=O)[C@H](CCC(N)=O)NC(=O)[C@@H](NC(=O)[C@H](C)NC(=O)[C@@H]1CSSC[C@H](NC(=O)[C@@H](N)CCCCN)C(=O)N[C@@H](CC(N)=O)C(=O)N[C@@H]([C@@H](C)O)C(=O)N[C@@H](C)C(=O)N[C@@H]([C@@H](C)O)C(=O)N1)[C@@H](C)O)C(C)C)C(=O)NCC(=O)N1CCC[C@H]1C(=O)N[C@H](C(=O)N[C@@H](CC(C)C)C(=O)N1CCC[C@H]1C(=O)N1CCC[C@H]1C(=O)N[C@H](C(=O)N[C@@H](CC(N)=O)C(=O)N[C@H](C(=O)NCC(=O)N[C@@H](CO)C(=O)N[C@@H](CC(N)=O)C(=O)N[C@H](C(=O)N[C@@H](Cc1ccc(O)cc1)C(N)=O)[C@@H](C)O)C(C)C)[C@@H](C)O)C(C)C [rAmy] | 95 ± 9% | 95 ± 12% | 74 ± 19% | 94 ± 13% | 89 ± 23%
